IC50, EC50 and AC50 data for six compounds are collected here from ChEMBL document CHEMBL1201862, “PubChem BioAssay data set” (2004).

Calls of active or inactive are those of the source.

For test [1], the target named is T1, Protein skinhead-1 (Caenorhabditis elegans, UniProt P34707).
T1 sequence (P34707 whole entry): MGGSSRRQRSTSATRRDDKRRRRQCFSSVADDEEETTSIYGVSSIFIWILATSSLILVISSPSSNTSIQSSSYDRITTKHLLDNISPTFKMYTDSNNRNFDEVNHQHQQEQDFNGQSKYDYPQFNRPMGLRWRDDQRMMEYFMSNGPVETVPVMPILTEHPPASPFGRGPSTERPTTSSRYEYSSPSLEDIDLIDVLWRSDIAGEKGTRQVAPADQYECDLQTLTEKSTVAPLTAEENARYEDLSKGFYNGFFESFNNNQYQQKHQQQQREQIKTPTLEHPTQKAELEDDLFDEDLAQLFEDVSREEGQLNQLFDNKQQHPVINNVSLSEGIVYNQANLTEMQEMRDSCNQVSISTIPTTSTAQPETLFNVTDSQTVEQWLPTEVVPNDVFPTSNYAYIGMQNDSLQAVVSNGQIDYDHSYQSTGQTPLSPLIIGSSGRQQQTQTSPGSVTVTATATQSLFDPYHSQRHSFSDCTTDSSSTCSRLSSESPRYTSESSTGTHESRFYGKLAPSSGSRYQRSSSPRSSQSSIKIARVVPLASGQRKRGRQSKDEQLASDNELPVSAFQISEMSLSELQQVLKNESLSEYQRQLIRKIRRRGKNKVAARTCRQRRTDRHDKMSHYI
The test is classed as functional.

The nature of test [2]: Luminescence Cell-Based Dose Response HTS to Identify Activators of Luciferase Translation or Activity in H4 […] Cells. [Related pubchem assays: 1829 (Project Summary), 1814 (Primary HTS)]. The test is classed as functional.
The subject of test [3] is H4. As to the kind of experiment: Luminescence Cell-Based Dose Response HTS to Identify Activators of 5'UTR Stem-Loop Driven Prion Protein mRNA Translation in H4 Neuroglioblastoma Cells. [Related pubchem assays: 1829 (Project Summary), 1814 (Primary HTS)]. The test is classed as functional. Particulars: Homo sapiens.
Test [4] deals with Mitogen-activated protein kinase 10 (Homo sapiens, UniProt P53779). As to the kind of experiment: Dose response biochemical screening assay for inhibitors of c-Jun N-Terminal Kinase 3 (JNK3). [Related pubchem assays: 746 ].
Sequence of Mitogen-activated protein kinase 10 (P53779 whole entry): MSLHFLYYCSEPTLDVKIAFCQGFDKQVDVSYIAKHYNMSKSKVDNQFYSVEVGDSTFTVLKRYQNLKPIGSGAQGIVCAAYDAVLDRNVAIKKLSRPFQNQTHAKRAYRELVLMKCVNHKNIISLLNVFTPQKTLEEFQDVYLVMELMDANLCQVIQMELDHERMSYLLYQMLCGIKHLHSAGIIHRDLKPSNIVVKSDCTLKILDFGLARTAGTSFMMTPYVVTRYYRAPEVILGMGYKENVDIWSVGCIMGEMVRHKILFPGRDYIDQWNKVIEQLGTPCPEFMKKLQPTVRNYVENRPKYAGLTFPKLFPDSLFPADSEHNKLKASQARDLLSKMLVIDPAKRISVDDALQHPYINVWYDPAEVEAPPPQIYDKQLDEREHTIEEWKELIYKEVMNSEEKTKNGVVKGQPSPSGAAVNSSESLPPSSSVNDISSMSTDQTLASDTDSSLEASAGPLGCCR
A short description of test [5]: P. falciparum Dd2 growth inhibitors, dose response, SYBR Green, cherry-picked samples (AID 1159567). The test is classed as functional, cell-based.
A short description of test [6]: HepG2 cell cytotoxicity, dose response, cytotoxicity control, plate reader, dry powder samples (AID 1159569).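 Further: inhibitor potency with signal falling toward the positive control level.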 The test is classed as functional, cell-based.
Test [7] is described as follows: P. falciparum 3D7-ScDHODH growth inhibitors, dose response, SYBR Green, dry powder samples (AID 1159570).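 Further: parasite growth measured after 72 hours of compound exposure.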 The class given is functional, cell-based.
A short description of test [8]: P. falciparum Dd2 growth inhibitors, dose response, SYBR Green, dry powder samples (AID 1159566).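 Further: potency for growth inhibition with lower SYBR green DNA signal.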 The class given is functional, cell-based.
Test [9] in a line: P. falciparum ATP4 D1247Y mutant growth inhibitors, dose response, NITD609-resistant line, SYBR Green, dry powder (AID 1159571).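 Further: parasites synchronized at ring stage by sorbitol before testing.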 The class given is functional, cell-based.

As for `c1ccc(-n2nc3ccc4c[nH]nc4c3n2)cc1`, the IC50 in [1] is > 100 µM (inactive); in [4], 43 µM (not active). The EC50 is > 120 µM (not active) in test [2] and 0.327 µM (active) in test [3].
As for `CC1=CC(=C2C(=O)c3ccccc3C2=O)C=C(C)N1Cc1ccco1`, the IC50 in [4] was 22.9 µM (not active).
As for `COc1ccc(C#Cc2ccc([C@H]3[C@H]4CN(C(=O)c5ccccc5)CC(=O)N4[C@H]3CO)cc2)cc1`, the AC50 in [5] is 2.52 µM (active); in [6], 23.5 µM (active); in [7], 3.84 µM (active); in test [8], 2.26 µM (active); in [9], 2.13 µM (active).
Consider `CCC1S/C(=C(\C#N)C(N)=O)N(c2ccc(F)cc2)C1=O` (stereo not drawn), for which the IC50 in [4] was 32.6 µM (not active).
Regarding `COc1ccc(C(=O)NCc2cn3c(C)csc3n2)cc1OC`, the IC50 in [4] was > 31 µM (not active).
With `CCOC(=O)C1=C(C)OC(N)=C(C#N)C1c1cc2ccccc2nc1N1CCCCC1` (stereo not drawn), the IC50 in [4] was > 93.1 µM (not active).
